Test results reported in ChEMBL document CHEMBL1201862, “PubChem BioAssay data set” (2004).
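Growth conditions: 96-well plates. Treatment: test compound, 48 hours, 5 concentrations. Analysis: linear interpolation between bracketing concentrations; unreached endpoints set to highest concentration. The concentration for 50% growth inhibition is given as GI50.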 Active and inactive are the calls of the source. Rule as the data show it: active = GI50 up to about 1.1 µM and inactive = higher.

Experiments:
Assay in all cases: inhibition of tumour cell growth, NCI panel, 48 h
EKVX = tested on: EKVX
HCT-116 = tested on: HCT-116
RXF 393 = tested on: RXF 393
NCI-H460 = tested on: NCI-H460
LOX IMVI = tested on: LOX IMVI
HOP-62 = tested on: HOP-62
NCI-H226 = tested on: NCI-H226
IGROV-1 = tested on: IGROV-1
OVCAR-5 = tested on: OVCAR-5
CCRF-CEM = tested on: CCRF-CEM
TK-10 = tested on: TK-10
HCC 2998 = tested on: HCC 2998
UO-31 = tested on: UO-31
CAKI-1 = tested on: CAKI-1
SK-MEL-28 = tested on: SK-MEL-28
UACC-257 = tested on: UACC-257
NCI-H522 = tested on: NCI-H522

SMILES	GI50 (EKVX)	GI50 (HCT-116)	GI50 (RXF 393)	GI50 (NCI-H460)	GI50 (LOX IMVI)	GI50 (HOP-62)	GI50 (NCI-H226)	GI50 (IGROV-1)	GI50 (OVCAR-5)	GI50 (CCRF-CEM)	GI50 (TK-10)	GI50 (HCC 2998)	GI50 (UO-31)	GI50 (CAKI-1)	GI50 (SK-MEL-28)	GI50 (UACC-257)	GI50 (NCI-H522)
O=[N+]([O-])c1ccc(Cl)c(C2CC(c3cccc4ccccc34)=Nc3ccccc3[S+]2[O-])c1 (centres undefined)	> 57.5 µM (inactive)	9.73 µM (inactive)	7.05 µM (inactive)	19.4 µM (inactive)	15.4 µM (inactive)	21.8 µM (inactive)	21.7 µM (inactive)	28.2 µM (inactive)	29.5 µM (inactive)	2.4 µM (inactive)	31.8 µM (inactive)	14.8 µM (inactive)	17.7 µM (inactive)	13.2 µM (inactive)	19.4 µM (inactive)	17 µM (inactive)	7.23 µM (inactive)
COc1cc(C(=O)N2CCc3c([nH]c4c([N+](=O)[O-])c(OC)ccc34)C2C)cc(OC)c1OC (centres undefined)	> 100 µM (inactive)	> 100 µM (inactive)	26.7 µM (inactive)	> 100 µM (inactive)	> 100 µM (inactive)	> 100 µM (inactive)	> 100 µM (inactive)	8.11 µM (inactive)	> 100 µM (inactive)	> 100 µM (inactive)	> 100 µM (inactive)	> 100 µM (inactive)	> 100 µM (inactive)	> 100 µM (inactive)	> 100 µM (inactive)	> 100 µM (inactive)	> 100 µM (inactive)
CCOCc1cc(=O)c2cc3c(cc2o1)OC(C)(C)CC3	> 100 µM (inactive)	> 100 µM (inactive)	> 100 µM (inactive)	> 100 µM (inactive)	> 100 µM (inactive)	> 100 µM (inactive)	> 100 µM (inactive)	> 100 µM (inactive)	> 100 µM (inactive)	> 100 µM (inactive)	> 100 µM (inactive)	> 100 µM (inactive)	92.9 µM (inactive)	> 100 µM (inactive)	–	65.3 µM (inactive)	> 100 µM (inactive)
COc1cc([C@@H]2c3cc4c(cc3[C@@H](NCc3ccc(C#N)cc3)C3COC(=O)[C@@H]32)OCO4)cc(OC)c1O (some centres undefined)	1.98 µM (inactive)	1.19 µM (inactive)	2.96 µM (inactive)	0.0344 µM (active)	0.778 µM (active)	0.31 µM (active)	0.283 µM (active)	1.15 µM (inactive)	2.02 µM (inactive)	0.233 µM (active)	1.84 µM (inactive)	1.57 µM (inactive)	1.61 µM (inactive)	1.26 µM (inactive)	2.33 µM (inactive)	4.76 µM (inactive)	1.09 µM (active)
CC1=C(C(=O)Nc2ccc(C)cc2)C(c2cccc([N+](=O)[O-])c2)C(C(=O)Nc2ccc(C)cc2)=C(C)N1	17.1 µM (inactive)	35.6 µM (inactive)	22.8 µM (inactive)	19.7 µM (inactive)	16.2 µM (inactive)	29.5 µM (inactive)	69.5 µM (inactive)	20.9 µM (inactive)	53.2 µM (inactive)	7.89 µM (inactive)	31.6 µM (inactive)	30.6 µM (inactive)	22 µM (inactive)	27.9 µM (inactive)	28.8 µM (inactive)	21.2 µM (inactive)	27.4 µM (inactive)
COc1ccc(OC)c(-c2cc(O)c3cc4c(cc3n2)OCO4)c1	37.4 µM (inactive)	4.14 µM (inactive)	2.99 µM (inactive)	3.41 µM (inactive)	6.07 µM (inactive)	13.9 µM (inactive)	7.38 µM (inactive)	10.5 µM (inactive)	8.53 µM (inactive)	4.36 µM (inactive)	11 µM (inactive)	4.67 µM (inactive)	19.8 µM (inactive)	4.12 µM (inactive)	5.87 µM (inactive)	7.69 µM (inactive)	2.85 µM (inactive)
O=C1Nc2ccccc2Nc2nc3cccccc-3c21	> 100 µM (inactive)	> 100 µM (inactive)	> 100 µM (inactive)	> 100 µM (inactive)	> 100 µM (inactive)	> 100 µM (inactive)	> 100 µM (inactive)	> 100 µM (inactive)	> 100 µM (inactive)	> 100 µM (inactive)	> 100 µM (inactive)	> 100 µM (inactive)	> 100 µM (inactive)	> 100 µM (inactive)	> 100 µM (inactive)	–	> 100 µM (inactive)
NC(=O)C(=O)CC(=O)c1ccccc1NC1=CC(=O)C(=O)c2ccccc21	> 100 µM (inactive)	53.1 µM (inactive)	> 83.4 µM (inactive)	98.6 µM (inactive)	14 µM (inactive)	> 100 µM (inactive)	> 73.3 µM (inactive)	> 92.3 µM (inactive)	> 100 µM (inactive)	33.9 µM (inactive)	> 100 µM (inactive)	> 100 µM (inactive)	> 68.5 µM (inactive)	> 100 µM (inactive)	> 51.1 µM (inactive)	34.7 µM (inactive)	30.2 µM (inactive)
